This note sets out measurements from patent EP2776398B1, “SUBSTITUTED PYRAZOLYL-BASED UREA DERIVATIVES AS VANILLOID RECEPTOR LIGANDS” (Medifron DBT Inc., priority 2011, dated 2013).

A word on the inhibition: it is how much of the control response was suppressed. By Ki is commonly meant a measure of affinity in units of concentration, obtained from inhibition or displacement.

The structures appear in SMILES notation.

One assay deals with T1, vanilloid receptor 1 (VR1/TRPV1 receptor) (Homo sapiens, UniProt Q8NER1).
T1 construct: expressed in transfected cells; host or cells: CHO K1 cells (ECACC), stably transfected
T1 sequence (Q8NER1 whole entry): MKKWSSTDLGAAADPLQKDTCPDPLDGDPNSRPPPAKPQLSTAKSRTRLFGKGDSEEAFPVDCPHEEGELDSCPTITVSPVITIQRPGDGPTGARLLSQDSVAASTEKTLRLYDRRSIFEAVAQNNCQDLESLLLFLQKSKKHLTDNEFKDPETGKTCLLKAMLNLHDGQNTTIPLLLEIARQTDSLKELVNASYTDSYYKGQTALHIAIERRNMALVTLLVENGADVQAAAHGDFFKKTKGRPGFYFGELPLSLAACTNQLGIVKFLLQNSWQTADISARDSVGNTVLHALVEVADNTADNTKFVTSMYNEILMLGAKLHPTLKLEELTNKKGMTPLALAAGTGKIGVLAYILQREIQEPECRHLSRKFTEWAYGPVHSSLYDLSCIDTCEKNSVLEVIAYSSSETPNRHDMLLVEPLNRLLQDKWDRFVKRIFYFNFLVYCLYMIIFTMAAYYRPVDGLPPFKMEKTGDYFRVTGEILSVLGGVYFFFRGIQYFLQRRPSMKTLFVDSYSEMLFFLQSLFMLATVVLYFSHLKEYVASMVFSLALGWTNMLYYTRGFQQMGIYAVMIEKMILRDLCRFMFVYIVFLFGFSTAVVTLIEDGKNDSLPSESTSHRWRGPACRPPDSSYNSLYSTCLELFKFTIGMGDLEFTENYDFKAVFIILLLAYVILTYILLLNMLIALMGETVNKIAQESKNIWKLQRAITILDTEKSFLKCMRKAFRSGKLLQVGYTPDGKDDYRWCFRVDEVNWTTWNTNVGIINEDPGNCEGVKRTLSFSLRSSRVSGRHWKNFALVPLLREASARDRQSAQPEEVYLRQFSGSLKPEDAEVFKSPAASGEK
Description: Functional testing on vanilloid receptor 1: FLIPR Ca2+ influx assay against capsaicin (Cap) in transfected CHO K1 cells (pharmacological method II). For Ki: 100 nM capsaicin. To be noted: @ 1µM; human VR1 in CHO K1 cells; capsaicin; relative to maximum inhibition with 10 µM capsazepine; read-out: inhibition (as a percentage), printed in column (f) Ki (human being) [nM] Cap. Format: cell-based. Also on record: key to (f) Ki (human being) [nM] Cap: agonist classification: AG = agonist.
From the text: […]
For the compound `CC(C)(C)c1cc(CNC(=O)Nc2ccc(COCCO)c(F)c2)n(-c2ccc(F)cc2)n1` [A134, 1-[[5-tert-Butyl-2-(4-fluorophenyl)-2H-pyrazol-3-yl]-methyl]-3-[3-fluoro-4-(2-hydroxy-ethoxy-methyl)-phenyl]-urea], the inhibition at 1 µM amounted to 23%.

The assay is the same for the next values; noted with them: @ 5µM; human VR1 in CHO K1 cells; capsaicin; relative to maximum inhibition with 10 µM capsazepine; read-out: inhibition (as a percentage), printed in column (f) Ki (human being) [nM] Cap.
For `O=C(NCc1cc(C(F)(F)F)nn1-c1cccc(Cl)c1)Nc1ccc(C(CO)CO)c(F)c1` [A153, 1-[[2-(3-Chlorophenyl)-5-(trifluoromethyl)-2H-pyrazol-3-yl]-methyl]-3-[3-fluoro-4-[2-hydroxy-1-(hydroxymethyl)-ethyl]-phenyl]-urea], the inhibition at 5 µM was found to be 50%.

Staying with this assay, now noted: human VR1 in CHO K1 cells; AG printed instead of a Ki.
On to `CC(C)(C)c1cc(CNC(=O)Nc2ccc(CCO)c(F)c2)n(-c2cccc(Cl)c2)n1` [A140, 1-[[5-tert-Butyl-2-(3-chlorophenyl)-2H-pyrazol-3-yl]-methyl]-3-[3-fluoro-4-(2-hydroxy-ethyl)-phenyl]-urea], for which the “(f) Ki (human being) [nM] Cap: agonist classification” value (shortened to “(f) Ki (human being) [nM] Cap”) is recorded as “AG”.

As for `COc1ccc(NC(=O)NCc2cc(C(F)(F)F)nn2-c2cccc(Cl)c2)cc1O` [A16, 1-[[2-(3-Chlorophenyl)-5-(trifluoromethyl)-2H-pyrazol-3-yl]-methyl]-3-(3-hydroxy-4-methoxy-phenyl)-urea], the “(f) Ki (human being) [nM] Cap” value is “AG”.

Take `CC(C(=O)NCc1cc(C(C)(C)C)nn1-c1cccc(Cl)c1)c1ccc(CO)c(Cl)c1` (stereo not shown) [A51, N-[[5-tert-Butyl-2-(3-chlorophenyl)-2H-pyrazol-3-yl]-methyl]-2-[3-chloro-4-(hydroxymethyl)-phenyl]-propionamide]: the “(f) Ki (human being) [nM] Cap” value was “AG”.

On to `COc1cc(NC(=O)NCc2cc(C(F)(F)F)nn2-c2cccc(Cl)c2)ccc1O` [A15, 1-[[2-(3-Chlorophenyl)-5-(trifluoromethyl)-2H-pyrazol-3-yl]-methyl]-3-(4-hydroxy-3-methoxy-phenyl)-urea], for which the “(f) Ki (human being) [nM] Cap” value is on record as “AG”.

The assay is the same for the next values; noted with them: read-out: (f) Ki (human being) [nM] Cap.
In the case of `O=C(NCc1cc(C(F)(F)F)nn1-c1ccc(Cl)cc1)Nc1ccc(CO)c(F)c1` [A60, 1-[[2-(4-Chlorophenyl)-5-(trifluoromethyl)-2H-pyrazol-3-yl]-methyl]-3-[3-fluoro-4-(hydroxymethyl)-phenyl]-urea], the Ki stood at 10 nM.

`O=C(Cc1ccc(COCCO)c(F)c1)NCc1cc(C(F)(F)F)nn1-c1cccc(Cl)c1` [A113, N-[[2-(3-Chlorophenyl)-5-(trifluoromethyl)-2H-pyrazol-3-yl]-methyl]-2-[3-fluoro-4-(2-hydroxy-ethoxy-methyl)-phenyl]-acetamide]: the Ki came out at 63 nM.

Consider `CC(C(=O)NCc1cc(C(C)(C)C)nn1-c1ccc(F)cc1)c1ccc(CO)c(F)c1` (stereo not shown) [A45, N-[[5-tert-Butyl-2-(4-fluorophenyl)-2H-pyrazol-3-yl]-methyl]-2-[3-fluoro-4-(hydroxymethyl)-phenyl]-propionamide], for which the Ki came out at 1 nM.

Turning to `O=C(NCc1cc(C(F)(F)F)nn1-c1cccc(Cl)c1)Nc1cc(F)c(O)c(F)c1` [A12, 1-[[2-(3-Chlorophenyl)-5-(trifluoromethyl)-2H-pyrazol-3-yl]-methyl]-3-(3,5-difluoro-4-hydroxy-phenyl)-urea], the Ki amounted to 8 nM.

In the case of `CC(C(=O)NCc1cc(C(F)(F)F)nn1-c1cccc(Cl)c1)c1ccc(CO)c(F)c1` (stereo not shown) [A33, N-[[2-(3-Chlorophenyl)-5-(trifluoromethyl)-2H-pyrazol-3-yl]-methyl]-2-[3-fluoro-4-(hydroxymethyl)-phenyl]-propionamide], the Ki was found to be 2 nM.

As for `Cc1cc(-n2nc(C(F)(F)F)cc2CNC(=O)Nc2ccc(CO)c(F)c2)ccc1Cl` [A78, 1-[[2-(4-Chloro-3-methyl-phenyl)-5-(trifluoromethyl)-2H-pyrazol-3-yl]-methyl]-3-[3-fluoro-4-(hydroxymethyl)-phenyl]-urea], the Ki was 11 nM.

Take `CC(C(=O)NCc1cc(C(F)(F)F)nn1-c1cccc(Cl)c1)c1ccc(C(O)CO)c(F)c1` (stereo not shown) [A148, N-[[2-(3-Chlorophenyl)-5-(trifluoromethyl)-2H-pyrazol-3-yl]-methyl]-2-[4-(1,2-dihydroxy-ethyl)-3-fluoro-phenyl]-propionamide]: the Ki amounted to 4 nM.

`COc1c(F)cc(CC(=O)NCc2cc(C(F)(F)F)nn2-c2cccc(Cl)c2)cc1F` [A2, N-[[2-(3-Chlorophenyl)-5-(trifluoromethyl)-2H-pyrazol-3-yl]-methyl]-2-(3,5-difluoro-4-methoxy-phenyl)-acetamide]: the Ki was 33 nM.

In the case of `CC(C(=O)NCc1cc(C(F)(F)F)nn1-c1cccc(Cl)c1)c1ccc(CCO)c(F)c1` (stereo not shown) [A138, N-[[2-(3-Chlorophenyl)-5-(trifluoromethyl)-2H-pyrazol-3-yl]-methyl]-2-[3-fluoro-4-(2-hydroxy-ethyl)-phenyl]-propionamide], the Ki amounted to 8 nM.

For the compound `O=C(NCc1cc(C(F)(F)F)nn1-c1ccc(F)cc1)Nc1ccc(CO)c(F)c1` [A63, 1-[3-Fluoro-4-(hydroxymethyl)-phenyl]-3-[[2-(4-fluorophenyl)-5-(trifluoromethyl)-2H-pyrazol-3-yl]-methyl]-urea], the Ki amounted to 9 nM.

Take `COc1c(F)cc(NC(=O)NCc2cc(C(F)(F)F)nn2-c2cccc(Cl)c2)cc1F` [A8, 1-[[2-(3-Chlorophenyl)-5-(trifluoromethyl)-2H-pyrazol-3-yl]-methyl]-3-(3,5-difluoro-4-methoxy-phenyl)-urea]: the inhibition constant (Ki) worked out at 55 nM.

In the case of `CC(C(=O)NCc1cc(C(F)(F)F)nn1-c1cccc(F)c1)c1ccc(C2(O)CC2)c(F)c1` (stereo not shown) [A102, 2-[3-Fluoro-4-(1-hydroxy-cyclopropyl)-phenyl]-N-[[2-(3-fluorophenyl)-5-(trifluoromethyl)-2H-pyrazol-3-yl]-methyl]-propionamide], the Ki is 15 nM.

In the case of `CC(C(=O)NCc1cc(C(F)(F)F)nn1-c1cccc(Cl)c1)c1ccc(C2(O)CC2)c(F)c1` (stereo not shown) [A101, N-[[2-(3-Chlorophenyl)-5-(trifluoromethyl)-2H-pyrazol-3-yl]-methyl]-2-[3-fluoro-4-(1-hydroxy-cyclopropyl)-phenyl]-propionamide], the Ki came out at 4 nM.

Regarding `Cc1cc(-n2nc(C(F)(F)F)cc2CNC(=O)Nc2ccc(CO)c(F)c2)ccc1C#N` [A81, 1-[[2-(4-Cyano-3-methyl-phenyl)-5-(trifluoromethyl)-2H-pyrazol-3-yl]-methyl]-3-[3-fluoro-4-(hydroxymethyl)-phenyl]-urea], the Ki was found to be 21 nM.

For `O=C(NCc1cc(C(F)(F)F)nn1-c1ccc(F)c(Cl)c1)Nc1ccc(COCCO)c(F)c1` [A130, 1-[[2-(3-Chloro-4-fluoro-phenyl)-5-(trifluoromethyl)-2H-pyrazol-3-yl]-methyl]-3-[3-fluoro-4-(2-hydroxy-ethoxy-methyl)-phenyl]-urea], the inhibitory constant (Ki) is 47 nM.

For the compound `Cc1ccc(-n2nc(C(F)(F)F)cc2CNC(=O)Nc2ccc(CO)c(F)c2)cc1C` [A75, 1-[[2-(3,4-Dimethyl-phenyl)-5-(trifluoromethyl)-2H-pyrazol-3-yl]-methyl]-3-[3-fluoro-4-(hydroxymethyl)-phenyl]-urea], the inhibition constant Ki was determined as 19 nM.

In the case of `O=C(NCc1cc(C(F)(F)F)nn1-c1cccc(F)c1)Nc1ccc(COCCO)c(F)c1` [A131, 1-[3-Fluoro-4-(2-hydroxy-ethoxy-methyl)-phenyl]-3-[[2-(3-fluorophenyl)-5-(trifluoromethyl)-2H-pyrazol-3-yl]-methyl]-urea], the Ki came to 56 nM.

On to `CC(C)c1cccc(-n2nc(C(F)(F)F)cc2CNC(=O)C(C)c2ccc(COCCO)c(F)c2)c1` (stereo not shown) [A115, 2-[3-Fluoro-4-(2-hydroxy-ethoxy-methyl)-phenyl]-N-[[2-(3-isopropyl-phenyl)-5-(trifluoromethyl)-2H-pyrazol-3-yl]-methyl]-propionamide], for which the Ki worked out at 3 nM.

As to `CC(C)(C)c1cc(CNC(=O)Nc2ccc(COCCO)c(F)c2)n(-c2cccc(Cl)c2)n1` [A129, 1-[[5-tert-Butyl-2-(3-chlorophenyl)-2H-pyrazol-3-yl]-methyl]-3-[3-fluoro-4-(2-hydroxy-ethoxy-methyl)-phenyl]-urea], the Ki came to 43 nM.

In the case of `CC(C(=O)NCc1cc(C(F)(F)F)nn1-c1cccc(Cl)c1)c1cc(F)c(O)c(F)c1` (stereo not shown) [A10, N-[[2-(3-Chlorophenyl)-5-(trifluoromethyl)-2H-pyrazol-3-yl]-methyl]-2-(3,5-difluoro-4-hydroxy-phenyl)-propionamide], the Ki was 1 nM.

In the case of `Cc1cccc(-n2nc(C(F)(F)F)cc2CNC(=O)C(C)c2ccc(COCCO)c(F)c2)c1` (stereo not shown) [A123, 2-[3-Fluoro-4-(2-hydroxy-ethoxy-methyl)-phenyl]-N-[[2-(m-tolyl)-5-(trifluoromethyl)-2H-pyrazol-3-yl]-methyl]-propionamide], the Ki was 24 nM.

Regarding `C[C@H](C(=O)NCc1cc(C(F)(F)F)nn1-c1cccc(Cl)c1)c1ccc(CO)c(F)c1` [A34, (2S)-N-[[2-(3-Chlorophenyl)-5-(trifluoromethyl)-2H-pyrazol-3-yl]-methyl]-2-[3-fluoro-4-(hydroxymethyl)-phenyl]-propionamide], the Ki amounted to 37 nM.

As for `CC(C(=O)NCc1cc(C(F)(F)F)nn1-c1cccc(Cl)c1)c1ccc(COCCO)c(F)c1` (stereo not shown) [A118, N-[[2-(3-Chlorophenyl)-5-(trifluoromethyl)-2H-pyrazol-3-yl]-methyl]-2-[3-fluoro-4-(2-hydroxy-ethoxy-methyl)-phenyl]-propionamide], the Ki is 27 nM.

Turning to `CC(C)(C)c1cc(CNC(=O)Nc2ccc(C3(O)COC3)cc2)n(-c2cccc(Cl)c2)n1` [A107, 1-[[5-tert-Butyl-2-(3-chlorophenyl)-2H-pyrazol-3-yl]-methyl]-3-[4-(3-hydroxy-oxetan-3-yl)-phenyl]-urea], the Ki is 45 nM.

For the compound `CC(C(=O)NCc1cc(C(F)(F)F)nn1-c1cc(F)cc(F)c1)c1ccc(COCCO)c(F)c1` (stereo not shown) [A126, N-[[2-(3,5-Difluoro-phenyl)-5-(trifluoromethyl)-2H-pyrazol-3-yl]-methyl]-2-[3-fluoro-4-(2-hydroxy-ethoxy-methyl)-phenyl]-propionamide], the Ki amounted to 79 nM.
